Source: PubChem BioAssay (NCI)
Values joined by “and” are separate entries in the source; they are usually repeats but may differ in a detail not shown here. Equal entries are not always repeated.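 Briefly, cells in 96-well plates were exposed to five compound concentrations for 48 h, and endpoints were estimated by linear interpolation. Abbreviation: GI50, concentration required for 50% inhibition of growth. TGI is the concentration that stops growth completely.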

Assays:
Assay in all cases: NCI anticancer screen, dose series, 48 h
KM12 colon = system: KM12 colon
HCT-116 colon = system: HCT-116 colon
SK-MEL-2 melanoma = system: SK-MEL-2 melanoma
HOP-92 NSCLC = system: HOP-92 NSCLC
MALME-3M melanoma = system: MALME-3M melanoma
SW-620 colon = system: SW-620 colon
UACC-62 melanoma = system: UACC-62 melanoma
OVCAR-8 ovarian = system: OVCAR-8 ovarian
786-0 renal = system: 786-0 renal
A498 renal = system: A498 renal

| Structure (SMILES) | TGI (KM12 colon) | TGI (HCT-116 colon) | TGI (SK-MEL-2 melanoma) | TGI (HOP-92 NSCLC) [µM] | TGI (MALME-3M melanoma) | TGI (SW-620 colon) [µM] | TGI (UACC-62 melanoma) | TGI (OVCAR-8 ovarian) | TGI (786-0 renal) | TGI (A498 renal) | GI50 (KM12 colon) | GI50 (HCT-116 colon) | GI50 (SK-MEL-2 melanoma) | GI50 (HOP-92 NSCLC) [µM] | GI50 (MALME-3M melanoma) | GI50 (SW-620 colon) | GI50 (UACC-62 melanoma) | GI50 (OVCAR-8 ovarian) | GI50 (786-0 renal) | GI50 (A498 renal) |
| --- | --- | --- | --- | --- | --- | --- | --- | --- | --- | --- | --- | --- | --- | --- | --- | --- | --- | --- | --- | --- |
| N#CC1CC2(CCN1C(=O)c1ccccc1)OCCO2 (centres undefined) | > 100 µM | > 100 µM | > 100 µM | > 100 | > 100 µM | > 100 | > 100 µM | > 100 µM | > 100 µM | > 100 µM | – | – | – | – | – | – | – | – | – | – |
| O=C1C(=Cc2c(O)cc(O)cc2O)C(=O)c2ccccc21 | > 51.4 µM | > 53.7 µM | > 56.5 µM | > 58 | > 59.3 µM | > 56.5 | > 54.9 µM | > 59.7 µM | > 56.4 µM | 98.7 µM | – | – | – | – | – | – | – | – | – | – |
| COc1cc(-c2nc(SCCC(C)C)nc(Nc3ccc(S(N)(=O)=O)cc3)c2C#N)cc(OC)c1OC | 5.56 µM | 4.85 µM | 6.16 µM | 4.47 | 4.14 µM | > 100 | 22.9 µM | > 100 µM | 4.87 µM | 5.36 µM | 2.2 µM | 2.01 µM | 2.47 µM | 1.48 | 1.6 µM | 3.08 µM | 3 µM | 4 µM | 2.16 µM | 1.89 µM |
| CCN(CC)c1ccc(C(=O)c2ccc(N(CC)CC)cc2)cc1 | 8.89 µM | 13.6 µM | 14.9 µM | 10.9 | 17.4 µM | 17 | > 100 µM | > 38.9 µM | 28.3 µM | 4.14 µM | 0.349 µM | 0.453 µM | 0.493 µM | 0.776 | 0.334 µM | 0.326 µM | 0.429 µM | 0.72 µM | 0.668 µM | 0.335 µM |
| CSc1nc(SC)c2c(CO)c(Br)n(Cc3ccccc3)c2n1 | > 100 µM | > 100 µM | > 100 µM | 41.8 | > 100 µM | > 100 | 41.9 µM | 44.1 µM | 37.6 µM | 14.5 µM | – | – | – | – | – | – | – | – | – | – |
| CCOC(=O)c1[nH]c(COC(C)=O)c2c1CCCCCCCCCC2 | > 100 µM | > 100 µM | > 100 µM | > 100 | > 100 µM | > 100 | > 100 µM | > 100 µM | > 100 µM | > 100 µM | – | – | – | – | – | – | – | – | – | – |
| Cc1cc(C)c(-n2c(-c3ccc(Br)cc3)cs/c2=N\N=C2C=C(C(C)(C)C)C(=O)C(C(C)(C)C)=C2)c(C)c1 | > 100 µM | > 100 µM | > 100 µM | > 89.8 | > 100 µM | > 100 | > 100 µM | > 100 µM | > 100 µM | 97.7 µM | – | – | – | – | – | – | – | – | – | – |
| COC(=O)Nc1nc2ccc(Br)cc2[nH]1 | > 100 µM | > 100 µM | 62.6 µM | > 100 | > 100 µM | > 100 | > 100 µM | > 100 µM | > 100 µM | > 100 µM | – | – | – | – | – | – | – | – | – | – |
| COc1ccc(OCC(=O)O)c(C(=O)CCC(=O)O)c1 | > 100 µM | > 100 µM | > 100 µM | > 100 | > 100 µM | > 100 | > 10 µM | > 100 µM | > 100 µM | > 100 µM | – | – | – | – | – | – | – | – | – | – |
| COc1cc2c(cc1OC)C13CCN4CC5CCOC6CC(=O)N2C1C6C5CC43 (centres undefined) | > 100 µM | > 100 µM | > 100 µM | > 100 | > 100 µM | > 100 | > 100 µM | > 100 µM | > 100 µM | > 100 µM | – | – | – | – | – | – | – | – | – | – |
| Cc1cc(Cl)ccc1NC(=O)CC1SC(=Nc2ccccc2Cl)NC1=O (centres undefined) | > 100 µM | > 100 µM | > 100 µM | > 100 | > 100 µM | > 100 | > 100 µM | > 100 µM | > 100 µM | > 100 µM | – | – | – | – | – | – | – | – | – | – |
| O=C1C(=O)c2cccnc2-c2ncccc21 | 1.59 µM | 0.159 µM | 2.35 µM | 0.618 | 0.769 µM | 1.12 | 0.514 µM | 0.727 µM | 2.5 µM | 2.21 µM | 0.409 µM | 0.0401 µM | 0.71 µM | 0.175 | 0.215 µM | 0.072 µM | 0.201 µM | 0.166 µM | 1.22 µM | 0.199 µM |
| CCN1CCN(CC(=O)N2c3cccc4cccc(c34)N(C(=O)CN3CCN(CC)CC3)C2c2cn(-c3ccccc3)nc2-c2cccc([N+](=O)[O-])c2)CC1 | 3.28 µM | 2.83 µM | 3.58 µM | 2.49 | 3.13 µM | 3.41 | 3.2 µM | 5.01 µM | 3.17 µM | 2.11 µM | 1.72 µM | 1.27 µM | 1.84 µM | 0.671 | 1.63 µM | 1.73 µM | 1.73 µM | 2.06 µM | 1.66 µM | 0.49 µM |
| O=C1CCc2c(sc3[nH]c(=S)n(Cc4ccc(Cl)cc4)c(=O)c23)C1 | 1.68 µM | > 100 µM | 6.12 µM | 0.816 | 3.9 µM | > 100 | 1.76 µM | > 100 µM | > 100 µM | 7.25 µM | 0.361 µM | 0.366 µM | 2.07 µM | 0.196 | 0.972 µM | 0.393 µM | 0.329 µM | 0.468 µM | 1.23 µM | 1.87 µM |
| CN(C)c1ccc(/C=c2\sc3nc4ccccc4n3c2=O)cc1 | > 100 µM | > 100 µM | > 100 µM | > 100 | > 100 µM | > 100 | > 100 µM | > 100 µM | > 100 µM | > 100 µM | – | – | – | – | – | – | – | – | – | – |
| Cc1cccc(NC(=O)c2cccc([N+](=O)[O-])c2O)c1C | > 69.4 µM | > 100 µM | 46.9 µM | 49.7 | > 84.2 µM | > 100 | > 100 µM | > 100 µM | > 100 µM | > 100 µM | – | – | – | – | – | – | – | – | – | – |
| Cc1cn(-c2cc(NC(=O)c3ccc(C)c(Nc4nccc(-c5cccnc5)n4)c3)cc(C(F)(F)F)c2)cn1 | > 10 µM and 9.49 µM | > 10 µM and 7.79 µM | > 10 µM and 10.4 µM | > 100 | 5.04 µM and 4.1 µM | > 40.9 | > 10 µM and 9.18 µM | > 10 µM and 24.8 µM | > 10 µM and 7.1 µM | > 10 µM and 12.1 µM | 3.81 µM and 2.72 µM | 4.26 µM and 2.06 µM | 2.19 µM and 2.1 µM | – | 1.69 µM and 0.78 µM | 4.44 µM and 3.43 µM | 1.65 µM and 1.09 µM | 4.43 µM and 4.29 µM | > 10 µM and 2.24 µM | > 10 µM and 4.09 µM |
| O=C(O)C1CC(O)CN1 (centres undefined) | > 100 µM | > 100 µM | > 100 µM | > 100 | > 100 µM | > 100 | > 100 µM | > 100 µM | > 100 µM | > 100 µM | – | – | – | – | – | – | – | – | – | – |
| C=C(c1ccccc1)[C@@]1(O)CC[C@@H]1N(CC#N)Cc1ccccc1 | > 71.4 µM | 30.3 µM | 53.1 µM | 34.9 | 27.5 µM | 34.8 | 32.1 µM | 52.3 µM | 35.4 µM | > 100 µM | – | – | – | – | – | – | – | – | – | – |
| Cc1cccc(C)c1NC(=O)C(=O)Nn1c(NN)nc2ccccc2c1=O | > 100 µM | > 100 µM | > 100 µM | > 100 | > 100 µM | > 100 | > 100 µM | > 100 µM | > 100 µM | > 100 µM | – | – | – | – | – | – | – | – | – | – |
| N#CC1(C#N)C(C#N)(C#N)C12CCCCCC2 | 19.3 µM | 17.5 µM | 18.4 µM | 29.4 | 31 µM | 5.29 | 18.4 µM | 26.7 µM | 14.3 µM | 34.1 µM | – | – | – | – | – | – | – | – | – | – |
| CC1OC(n2cc(F)c(=O)[nH]c2=O)C=CC1=O (centres undefined) | 31.5 µM | 29.8 µM | 28.9 µM | 33.2 | 35.3 µM | 38.6 | 32.4 µM | 47.9 µM | 29.4 µM | 36.9 µM | – | – | – | – | – | – | – | – | – | – |
| O=c1c(O)c(-c2cc(O)c(O)c(O)c2)oc2cc(O)cc(O)c12 | 33.1 µM | 34.1 µM | > 100 µM | > 100 | > 100 µM | 36 | > 100 µM | 33.2 µM | 44.8 µM | > 100 µM | – | – | – | – | – | – | – | – | – | – |
| O=C(OC[C@H]1O[C@H](OC(=O)c2cc(O)c(O)c(OC(=O)c3cc(O)c(O)c(O)c3)c2)[C@H](OC(=O)c2cc(O)c(O)c(OC(=O)c3cc(O)c(O)c(O)c3)c2)[C@@H](OC(=O)c2cc(O)c(O)c(OC(=O)c3cc(O)c(O)c(O)c3)c2)[C@@H]1OC(=O)c1cc(O)c(O)c(OC(=O)c2cc(O)c(O)c(O)c2)c1)c1cc(O)c(O)c(OC(=O)c2cc(O)c(O)c(O)c2)c1 | > 25 µM | 6.98 µM | > 25 µM | > 25 | > 25 µM | > 25 | > 25 µM | > 25 µM | 20.2 µM | > 25 µM | 1.67 µM | 1.57 µM | 9.02 µM | 10.6 | 7.42 µM | 5.48 µM | 0.985 µM | 1.91 µM | 4.89 µM | > 25 µM |
| O=C1C(Cl)=C(NCc2ccco2)C(=O)c2ccccc21 | > 100 µM | 49.5 µM | > 100 µM | 62.2 | 4.37 µM | > 100 | 13.6 µM | > 100 µM | 72.3 µM | 59.2 µM | 8.67 µM | 7.09 µM | 35 µM | 23.2 | 2.03 µM | 18.3 µM | 3.98 µM | 22.5 µM | 29 µM | 17.7 µM |
